Experimental data reported in ChEMBL document CHEMBL2331172, “Pyrrole and furan oligoglycosides from the starfish Asterina batheri and their inhibitory effect on the production of pro-inflammatory cytokines in lipopolysaccharide-stimulated bone marrow-derived dendritic cells” (Bioorg Med Chem Lett, 2013).

Tests used:
Conditions in all cases: bmdc
[1] = Antiinflammatory activity in wild-type C57BL/6 mouse BMDCs assessed as inhibition of IL-12 p40 production incubated for 1 hr prior to LPS challenge measured after 16 hrs by ELISA; type: functional
[2] = Cytotoxicity against wild-type C57BL/6 mouse BMDCs assessed as cell viability by MTT assay
[3] = Antiinflammatory activity in wild-type C57BL/6 mouse BMDCs assessed as inhibition of TNFalpha production incubated for 1 hr prior to LPS challenge measured after 16 hrs by ELISA; type: functional
[4] = Antiinflammatory activity in wild-type C57BL/6 mouse BMDCs assessed as inhibition of IL-6 production incubated for 1 hr prior to LPS challenge measured after 16 hrs by ELISA; type: functional

Q: With `CC(=O)c1occc1O[C@@H]1O[C@H](C)[C@@H](O[C@@H]2O[C@H](C)[C@H](O)[C@H](O[C@@H]3O[C@H](C)[C@H](O)[C@H](O)[C@H]3O)[C@H]2O)[C@H](O)[C@H]1O[C@@H]1O[C@H](C)[C@@H](O)[C@H](O)[C@H]1O` [ASTEBATHERIOSIDE D] as the compound, how does the IC50 [1] read?
A: Its IC50 is 22.8 µM.

Q: And the Activity [2]?
A: The Activity was “Non-toxic”.

Q: With `CC(=O)c1[nH]ccc1O[C@@H]1O[C@H](C)[C@@H](O)[C@H](O)[C@H]1O[C@@H]1O[C@H](C)[C@@H](O)[C@H](O)[C@H]1O` [ASTEBATHERIOSIDE C] as the compound, how does the IC50 [1] read?
A: Its IC50 is 31.6 µM.

Q: What about the Activity [2] of the same compound?
A: Its Activity is “Non-toxic”.

Q: For `CC(=O)c1[nH]ccc1O[C@@H]1O[C@H](C)[C@@H](O[C@@H]2O[C@H](C)[C@H](O)[C@H](O[C@@H]3O[C@H](C)[C@H](O)[C@H](O)[C@H]3O)[C@H]2O)[C@H](O)[C@H]1O[C@@H]1O[C@H](C)[C@@H](O)[C@H](O)[C@H]1O`, which IC50 [3] is on record?
A: Its IC50 is greater than 50 µM.

Q: And the IC50 [4]?
A: The IC50 was greater than 50 µM.

Q: And the IC50 [1]?
A: The IC50 was greater than 50 µM.

Q: And the Activity [2]?
A: The Activity was “Non-toxic”.

Q: Which IC50 [1] does the source give for `C[S+]([O-])c1ccc(-c2nc(-c3ccc(F)cc3)c(-c3ccncc3)[nH]2)cc1` (stereo not given) [SB-203580] here?
A: Its IC50 is 5 µM.

Q: With `CC(=O)c1[nH]ccc1O[C@@H]1O[C@H](C)[C@@H](O[C@H]2OC[C@H](O)[C@H](O)[C@H]2O[C@@H]2O[C@H](C)[C@H](O)[C@H](O[C@@H]3O[C@@H](CO)[C@H](O)[C@H]3O)[C@H]2O)[C@H](O)[C@H]1O[C@@H]1O[C@H](C)[C@@H](O)[C@H](O)[C@H]1O` [ASTEBATHERIOSIDE B] as the compound, how does the IC50 [1] read?
A: The IC50 was 36.4 µM.

Q: And the Activity [2]?
A: Its Activity is “Non-toxic”.

Q: For `CC(=O)c1[nH]ccc1O[C@@H]1O[C@H](C)[C@@H](O[C@@H]2O[C@H](C)[C@H](O)[C@H](O[C@@H]3O[C@H](C)[C@H](O)[C@H](O[C@@H]4O[C@@H](CO)[C@H](O)[C@H]4O)[C@H]3O)[C@H]2O)[C@H](O)[C@H]1O[C@@H]1O[C@H](C)[C@@H](O)[C@H](O)[C@H]1O` [ASTEBATHERIOSIDE A], which IC50 [3] is on record?
A: The IC50 was greater than 50 µM.

Q: What about the IC50 [4] of the same compound?
A: Its IC50 is greater than 50 µM.

Q: What about the IC50 [1] of the same compound?
A: The IC50 was greater than 50 µM.

Q: What about the Activity [2] of the same compound?
A: Its Activity is “Non-toxic”.
